Active and inactive are the calls of the source. No cut-off for these calls is given here.
tested on: PC-3; assay: Toxicity against PC3 cell line by LDH-release assay; assay type: cell-based; details: human

Row | SMILES | Activity
1 | N#Cc1c(-c2cccc(F)c2)c(NCCc2ccccc2)n2c(Cl)cccc12 | Non-toxic
2 | N#Cc1c(-c2ccccc2)c(NCCc2ccccc2)n2c(Cl)cccc12 | Non-toxic
3 | N#Cc1c(-c2ccccc2)c(NCC(=O)NCc2ccco2)n2c(Cl)cccc12 | Non-toxic
4 | N#Cc1c(-c2ccccc2)c(NC2CCCCC2)n2c(Cl)cccc12 | Non-toxic
5 | N#Cc1c(-c2ccccc2)c(NCCc2ccccc2Cl)n2c(Cl)cccc12 | Non-toxic

tested on: PC-3; assay: Inhibition of PC3 cell migration; assay type: functional, cell-based; details: Homo sapiens

Row | SMILES | IC50 [µM]
6 | N#Cc1c(-c2ccccc2)c(NCCc2ccccc2)n2c(Cl)cccc12 | 21
7 | N#Cc1c(-c2ccccc2)c(NCC(=O)NCc2ccco2)n2c(Cl)cccc12 | 54

The remaining lines, values ahead:

Row | IC50 [µM] | SMILES
8 | 8 | N#Cc1c(-c2cccc(F)c2)c(NCCc2ccccc2)n2c(Cl)cccc12
9 | 72 | N#Cc1c(-c2ccccc2)c(NC2CCCCC2)n2c(Cl)cccc12
10 | 23 | N#Cc1c(-c2ccccc2)c(NCCc2ccccc2Cl)n2c(Cl)cccc12

molecular target: Neuropilin-1 (Homo sapiens, UniProt O14786); assay: Inhibition of VEGF165-NRP1 interaction by ELISA; details: not given
Sequence (O14786 whole entry): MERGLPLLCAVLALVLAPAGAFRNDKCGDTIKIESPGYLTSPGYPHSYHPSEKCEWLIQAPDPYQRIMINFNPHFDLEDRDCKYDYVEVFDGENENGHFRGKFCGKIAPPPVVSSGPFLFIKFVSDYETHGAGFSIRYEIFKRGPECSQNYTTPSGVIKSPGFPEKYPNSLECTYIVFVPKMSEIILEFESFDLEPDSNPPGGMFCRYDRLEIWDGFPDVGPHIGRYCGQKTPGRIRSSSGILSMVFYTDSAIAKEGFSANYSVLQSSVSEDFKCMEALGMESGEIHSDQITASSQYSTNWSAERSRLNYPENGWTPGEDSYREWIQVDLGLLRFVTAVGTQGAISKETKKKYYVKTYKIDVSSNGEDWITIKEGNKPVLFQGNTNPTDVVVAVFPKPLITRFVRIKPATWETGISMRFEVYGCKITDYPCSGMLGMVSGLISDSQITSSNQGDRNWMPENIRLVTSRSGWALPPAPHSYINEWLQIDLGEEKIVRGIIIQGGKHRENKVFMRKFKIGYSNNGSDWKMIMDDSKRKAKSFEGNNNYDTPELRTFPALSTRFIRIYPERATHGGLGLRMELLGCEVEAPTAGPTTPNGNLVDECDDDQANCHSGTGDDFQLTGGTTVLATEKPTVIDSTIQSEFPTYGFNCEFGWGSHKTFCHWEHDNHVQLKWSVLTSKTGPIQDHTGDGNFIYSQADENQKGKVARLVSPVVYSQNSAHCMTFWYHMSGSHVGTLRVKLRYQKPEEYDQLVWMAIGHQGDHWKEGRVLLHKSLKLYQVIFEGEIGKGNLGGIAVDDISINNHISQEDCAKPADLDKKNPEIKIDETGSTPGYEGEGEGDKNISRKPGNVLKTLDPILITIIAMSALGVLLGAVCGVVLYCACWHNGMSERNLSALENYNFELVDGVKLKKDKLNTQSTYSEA

Row | SMILES | IC50 [µM] | Activity
11 | CC(=O)Nc1c(-c2ccccc2)c(C#N)c2cccc(Cl)n12 |  | inactive
12 | Cc1cccc(C)c1Nc1c(-c2ccccc2)c(C#N)c2cccc(Cl)n12 | 60 | 
13 | Cc1ccc(C)c(-c2c(C#N)c3cccc(Cl)n3c2NCCc2ccccc2)c1 | 6 | 
14 | COc1ccc(-c2c(C#N)c3cccc(Cl)n3c2NCCc2ccccc2)cc1 | 5 | 
15 | CN(C)CCCNc1c(-c2ccccc2)c(C#N)c2cccc(Cl)n12 | 62 | 
16 | N#Cc1c(-c2ccc(Cl)cc2)c(NCCc2ccccc2)n2c(Cl)cccc12 | 2 | 
17 | N#Cc1c(-c2ccccc2)c(NCCc2ccccc2)n2c(Cl)cccc12 | 2 | 
18 | N#Cc1c(-c2ccccc2)c(Nc2cccc(N)c2)n2c(Cl)cccc12 | 80 | 
19 | N#Cc1c(-c2ccccc2)c(NCC(=O)NCc2ccco2)n2c(Cl)cccc12 | 19 | 
20 | CC(C)(C)c1ccc(-c2c(C#N)c3cccc(Cl)n3c2NCCc2ccccc2)cc1 | 14 | 
21 | CSc1ccc(-c2c(C#N)c3cccc(Cl)n3c2NCCc2ccccc2)cc1 | 3 | 
22 | N#Cc1c(-c2ccccc2)c(N)n2c(Cl)cccc12 |  | inactive
23 | Cc1cnc(-c2c(C#N)c3cccc(Cl)n3c2NCCc2ccccc2)s1 | 22 | 
24 | COc1ccccc1-c1c(C#N)c2cccc(Cl)n2c1NCCc1ccccc1 | 3 | 
25 | N#Cc1c(-c2ccc(F)cc2)c(NCCc2ccccc2)n2c(Cl)cccc12 | 5 | 
26 | Cc1ccccc1-c1c(C#N)c2cccc(Cl)n2c1NCCc1ccccc1 | 9 | 

Row | SMILES | IC50 [µM] | Activity
27 | N#Cc1c(-c2ccccc2)c(NC2CCCCC2)n2c(F)cccc12 |  | inactive
28 | CN(C)CCCOc1cccc2c(C#N)c(-c3ccccc3)c(NC3CCCCC3)n12 | 79 | 
29 | CN(C)CCNc1cccc2c(C#N)c(-c3ccccc3)c(NC3CCCCC3)n12 | 42 | 
30 | N#Cc1c(-c2ccnc3ccccc23)c(NCCc2ccccc2)n2c(Cl)cccc12 |  | inactive
31 | N#Cc1c(-c2ccccc2)c(NC2CCCCC2)n2c(SCC(=O)O)cccc12 |  | inactive
32 | N#Cc1c(CCc2ccccc2)c(NCCc2ccccc2)n2c(Cl)cccc12 | 2 | 
33 | N#Cc1c(-c2ccccc2S)c(NCCc2ccccc2)n2c(Cl)cccc12 | 10 | 
34 | CSc1cccc2c(C#N)c(-c3ccccc3)c(NC3CCCCC3)n12 |  | inactive
35 | N#Cc1c(-c2ccccn2)c(NCCc2ccccc2)n2c(Cl)cccc12 | 2 | 
36 | N#Cc1c(-c2ccccc2Cl)c(NCCc2ccccc2)n2c(Cl)cccc12 | 3 | 
37 | N#Cc1c(-c2cccc(Cl)c2)c(NCCc2ccccc2)n2c(Cl)cccc12 | 3 | 
38 | COc1cccc(-c2c(C#N)c3cccc(Cl)n3c2NCCc2ccccc2)c1 | 2 | 
39 | N#Cc1c(-c2ccccc2)c(NCCc2ccc(Cl)cc2)n2c(Cl)cccc12 | 4 | 
40 | CN(CCNc1c(-c2ccccc2)c(C#N)c2cccc(Cl)n12)Cc1ccccc1 | 4 | 
41 | CCN(CC)CCNc1c(-c2ccccc2)c(C#N)c2cccc(Cl)n12 |  | inactive

Results, then the compound that gave them:

Row | IC50 [µM] | Activity | SMILES
42 | 2 |  | N#Cc1c(-c2cccc(F)c2)c(NCCc2ccccc2)n2c(Cl)cccc12
43 |  | inactive | N#Cc1c(C2CCCCC2)c(NCCc2ccccc2)n2c(Cl)cccc12
44 | 4 |  | N#Cc1c(-c2ccc(F)c3ccccc23)c(NCCc2ccccc2)n2c(Cl)cccc12
45 | 4 |  | N#Cc1c(-c2cccnc2)c(NCCc2ccccc2)n2c(Cl)cccc12
46 | 6 |  | N#Cc1c(-c2cccc(S)c2)c(NCCc2ccccc2)n2c(Cl)cccc12
47 | 47 |  | CN(C)c1ccc(Nc2c(-c3ccccc3)c(C#N)c3cccc(Cl)n23)cc1
48 | 13 |  | N#Cc1c(CCO)c(NCCc2ccccc2)n2c(Cl)cccc12
49 | 10 |  | CN(C)CCCOc1ccc(-c2c(C#N)c3cccc(Cl)n3c2NCCc2ccccc2)cc1
50 | 6 |  | N#Cc1c(-c2ccncc2)c(NCCc2ccccc2)n2c(Cl)cccc12
51 | 9 |  | COCCNc1c(-c2ccccc2)c(C#N)c2cccc(Cl)n12
52 | 95 |  | N#Cc1c(C2CCNCC2)c(NCCc2ccccc2)n2c(Cl)cccc12
53 |  | inactive | COc1ccc(CNc2c(-c3ccccc3)c(C#N)c3cccc(Cl)n23)c(OC)c1
54 | 13 |  | N#Cc1c(-c2ccccc2)c(NCc2ccc(Cl)c(Cl)c2)n2c(Cl)cccc12
55 | 29 |  | N#Cc1c(-c2ccccc2)c(NC2CCCCC2)n2c(Cl)cccc12
56 | 3 |  | N#Cc1c(-c2ccccc2F)c(NCCc2ccccc2)n2c(Cl)cccc12
57 | 13 |  | N#Cc1c(-c2ccc(OC(F)(F)F)cc2)c(NCCc2ccccc2)n2c(Cl)cccc12
58 | 5 |  | Cc1ccc(-c2c(C#N)c3cccc(Cl)n3c2NCCc2ccccc2)cc1
59 |  | inactive | N#Cc1c(-c2ccccc2)c(NC(=O)c2ccccc2)n2c(Cl)cccc12
60 | 3 |  | N#Cc1c(-c2ccccc2)c(NCCc2ccccc2Cl)n2c(Cl)cccc12
61 | 43 |  | N#Cc1c(-c2ccccc2)c(NCCN)n2c(Cl)cccc12
62 |  | inactive | COC(=O)CSc1cccc2c(C#N)c(-c3ccccc3)c(NC3CCCCC3)n12
